Counter-ions that a name gives are not always drawn. *1 amine or outer side, *2 acyl side, *3 side chain or, on linkers, in order; H or OH if unused. Where a SMILES comes first, the peptide text is derived from it. [ ]: non-standard residue; d: D form. The star is where a group is joined. X1 = CCCNC(=O)Nc1cccc(S(=O)(=O)Nc2cccc([C@@H](CC(=O)O)NC(=O)Nc3ccc(N*)cc3)c2)c1; Camptothecin(7-Et) = CCc1c2c(nc3ccccc13)-c1cc3c(c(=O)n1C2)COC(=O)[C@@]3(CC)O*; CO = O=C([*:1])[*:2]; Sar = CNCC(=O)O
Tests used:
Test in all cases: Cytotoxicity assay (Version 2), automated, AC50
HT29 = format: cell-based, human; conditions: HT29 cells, Version 2, activity concentration at -50%, 4 parameter Hill-fit
Description: (§1) Cultivation of cells was performed according to standard procedures with the media recommended by the provider. The cells, in a total volume of 100 μL, were seeded in a 96-well plate with a white bottom (#3610). After a 24 h incubation period at 37° C. and 5% CO2, the medium was exchanged by adding 90 μL fresh medium. The treatment started by adding the test compound in 10 μL of culture medium to the cells in triplicates. Concentrations ranging from 10^−5 M to 10^−13 M were chosen. Two identically treated sets of samples were prepared. One set was treated with the test compound alone, whereas to the second set the compound and 10 nM elastase was added followed by a 72 h incubation period at 37° C. and 5% CO2. The proliferation was detected using the MTT assay (ATCC). At the end of the incubation period the MTT reagent was added to all samples for 4h. Lysis of the cells followed by addition of the detergent was done overnight. The formed dye was detected at 570 nm. The proliferation of untreated but otherwise identically handled cells was define as the […].
(§2) The Cytotoxicity assay (Version 2) was performed as above described. Some changes were applied as the assays were performed in an automated fashion and the IC50 values determination was changed. Here the change in metabolic activity of the cells, in percent, was calculated by normalization of the measured values to the absorbance values of medium containing wells without cells (=−100% ) and the absorbance of the DMSO-treated cells (=0% ). AC50 values (activity concentration at -50% o) were determined by means of a 4 parameter Hill-fit using GeneData Screener software.

786-O = format: cell-based, human; conditions: 786-O cells, Version 2, activity concentration at -50%, 4 parameter Hill-fit
Description: as §1, §2

NCI H292 = format: cell-based, human; conditions: NCI H292 cells, Version 2, activity concentration at -50%, 4 parameter Hill-fit
Description: as §1, §2

SUM149 = format: cell-based; conditions: SUM149 cells, Version 2, activity concentration at -50%, 4 parameter Hill-fit
Description: as §1, §2

Row | Structure (SMILES) | AC50 (HT29; no elastase) | AC50 (HT29; with elastase) | AC50 (786-O; no elastase) | AC50 (786-O; with elastase) | AC50 (NCI H292; no elastase) | AC50 (NCI H292; with elastase) | AC50 (SUM149; no elastase) | AC50 (SUM149; with elastase)
1 | CCCNC(=O)Nc1cccc(S(=O)(=O)Nc2cccc([C@@H](CC(=O)O)NC(=O)Nc3ccc(NC(=O)NCCOCCOCCOCCC(=O)N[C@@H](CC(=O)OCCC[N+](C)(C)C)C(=O)N4CCC[C@H]4C(=O)N[C@H](C(=O)O[C@]4(CC)C(=O)OCc5c4cc4n(c5=O)Cc5c-4nc4ccccc4c5CC)C(C)C)cc3)c2)c1 [Compound C5, trifluoroacetate] | > 1 µM | 0.011 to 0.1 µM | 0.11 to 1 µM | ≤ 0.01 µM | 0.11 to 1 µM | ≤ 0.01 µM | 0.11 to 1 µM | ≤ 0.01 µM
2 | CCCNC(=O)Nc1cccc(S(=O)(=O)Nc2cccc([C@H](CC(=O)O)NC(=O)Nc3ccc(NC(=O)NCCOCCOCCOCCC(=O)NCCNC(=O)CC[C@H](NC(=O)CCCC(=O)NCCN(C)CCN(C)CCN(C)CC(=O)NCC(=O)N4CCC[C@H]4C(=O)N[C@H](C(=O)O[C@]4(CC)C(=O)OCc5c4cc4n(c5=O)Cc5c-4nc4ccccc4c5CC)C(C)C)C(=O)NCCNC(=O)CCOCCOCCOCCNC(=O)Nc4ccc(NC(=O)N[C@@H](CC(=O)O)c5cccc(NS(=O)(=O)c6cccc(NC(=O)NCCC)c6)c5)cc4)cc3)c2)c1 [Compound A12] | 0.11 to 1 µM | 0.011 to 0.1 µM | ≤ 0.01 µM | ≤ 0.01 µM | 0.011 to 0.1 µM | ≤ 0.01 µM | ≤ 0.01 µM | ≤ 0.01 µM
3 | CCCNC(=O)Nc1cccc(S(=O)(=O)Nc2cccc([C@@H](CC(=O)O)NC(=O)Nc3ccc(NC(=O)NCCOCCOCCOCCC(=O)N[C@@H](CCCCNC(=O)CCCC(=O)N(C)CC(=O)N(C)CC(=O)N(C)CC(=O)N(C)CC(=O)N(C)CC(=O)N(C)CC(=O)N(C)CC(=O)N(C)CC(=O)O)C(=O)NCCOCCOCCOCCC(=O)N[C@@H](CC(=O)O)C(=O)N4CCC[C@H]4C(=O)N[C@H](C(=O)O[C@]4(CC)C(=O)OCc5c4cc4n(c5=O)Cc5c-4nc4ccccc4c5CC)C(C)C)cc3)c2)c1 [Compound E4] | 0.11 to 1 µM | 0.011 to 0.1 µM | 0.11 to 1 µM | ≤ 0.01 µM | 0.11 to 1 µM | ≤ 0.01 µM | 0.11 to 1 µM | ≤ 0.01 µM
4 | CCCNC(=O)Nc1cccc(S(=O)(=O)Nc2cccc([C@@H](CC(=O)O)NC(=O)Nc3ccc(NC(=O)N(C)CC(=O)N(C)CC(=O)N(C)CC(=O)N(C)CC(=O)N[C@@H](CC(=O)O)C(=O)N4CCC[C@H]4C(=O)N[C@H](C(=O)O[C@]4(CC)C(=O)OCc5c4cc4n(c5=O)Cc5c-4nc4ccccc4c5CC)C(C)C)cc3)c2)c1 [Compound B6] ({X1-CO}-[Sar][Sar][Sar][Sar]DPV-{Camptothecin(7-Et)}) | > 1 µM | 0.011 to 0.1 µM | 0.11 to 1 µM | ≤ 0.01 µM | 0.11 to 1 µM | ≤ 0.01 µM | 0.11 to 1 µM | ≤ 0.01 µM
5 | CCCNC(=O)Nc1cccc(S(=O)(=O)Nc2cccc([C@@H](CC(=O)O)NC(=O)Nc3ccc(NC(=O)NCCOCCOCCOCCC(=O)N[C@@H](CC(=O)O)C(=O)N4CCC[C@H]4C(=O)N[C@@H](C)C(=O)O[C@]4(CC)C(=O)OCc5c4cc4n(c5=O)Cc5c-4nc4ccccc4c5CC)cc3)c2)c1 [Compound C10, disodium (4S)-4,11-diethyl-3,14-dioxo-3,4,12,14-tetrahydro-1H-pyrano[3′,4′:6,7]indolizino[1,2-b]quinolin-4-yl 1-[(2S)-2-(carboxylatomethyl)-17-{4-[({(1R)-2-carboxylato-1-[3-({3-[(propylcarbamoyl)amino]benzene-1-sulfonyl}amino)phenyl]ethyl}carbamoyl)amino]anilino}-4,17-dioxo-7,10,13-trioxa-3,16-diazaheptadecanan-1-oyl]-L-prolyl-L-alaninate] | 0.11 to 1 µM | 0.011 to 0.1 µM | 0.011 to 0.1 µM | ≤ 0.01 µM | 0.011 to 0.1 µM | ≤ 0.01 µM | 0.011 to 0.1 µM | ≤ 0.01 µM
6 | CCCNC(=O)Nc1cccc(S(=O)(=O)Nc2cccc([C@@H](CC(=O)O)NC(=O)Nc3ccc(NC(=O)N(C)CC(=O)N(C)CC(=O)N(C)CC(=O)N(C)CC(=O)N(C)CC(=O)N(C)CC(=O)N(C)CC(=O)N(C)CC(=O)N[C@@H](CC(=O)O)C(=O)N4CCC[C@H]4C(=O)N[C@H](C(=O)O[C@]4(CC)C(=O)OCc5c4cc4n(c5=O)Cc5c-4nc4ccccc4c5CC)C(C)C)cc3)c2)c1 [Compound D3] ({X1-CO}-[Sar][Sar][Sar][Sar][Sar][Sar][Sar][Sar]DPV-{Camptothecin(7-Et)}) | 0.11 to 1 µM | 0.011 to 0.1 µM | 0.11 to 1 µM | ≤ 0.01 µM | 0.11 to 1 µM | ≤ 0.01 µM | 0.11 to 1 µM | ≤ 0.01 µM
7 | CCCNC(=O)Cc1cccc(S(=O)(=O)Nc2cccc([C@@H](CC(=O)O)NC(=O)Nc3ccc(NC(=O)NCCOCCOCCOCCC(=O)NCCNC(=O)[C@H](CCC(=O)NCCNC(=O)CCOCCOCCOCCNC(=O)Nc4ccc(NC(=O)N[C@H](CC(=O)O)c5cccc(NS(=O)(=O)c6cccc(NC(=O)NCCC)c6)c5)cc4)NC(=O)CCCC(=O)NCCN(C)CCN(C)CCN(C)CC(=O)NCC(=O)N4CCC[C@H]4C(=O)N[C@H](C(=O)O[C@]4(CC)C(=O)OCc5c4cc4n(c5=O)Cc5c-4nc4ccccc4c5CC)C(C)C)cc3)c2)c1 [Compound A11] | 0.11 to 1 µM | 0.011 to 0.1 µM | 0.011 to 0.1 µM | ≤ 0.01 µM | ≤ 0.01 µM | ≤ 0.01 µM | ≤ 0.01 µM | ≤ 0.01 µM
8 | CCCNC(=O)Nc1cccc(S(=O)(=O)Nc2cccc([C@@H](CC(=O)O)NC(=O)Nc3ccc(NC(=O)NCCOCCOCCOCCC(=O)NCCNC(=O)CC[C@H](NC(=O)CCCC(=O)NCCN(C)CCN(C)CCN(C)CC(=O)N[C@@H](CC(N)=O)C(=O)N4CCC[C@H]4C(=O)N[C@H](C(=O)O[C@]4(CC)C(=O)OCc5c4cc4n(c5=O)Cc5c-4nc4ccccc4c5CC)C(C)C)C(=O)NCCNC(=O)CCOCCOCCOCCNC(=O)Nc4ccc(NC(=O)N[C@H](CC(=O)O)c5cccc(NS(=O)(=O)c6cccc(NC(=O)NCCC)c6)c5)cc4)cc3)c2)c1 [Compound A9] | > 1 µM | 0.011 to 0.1 µM | 0.11 to 1 µM | ≤ 0.01 µM | 0.11 to 1 µM | ≤ 0.01 µM | 0.11 to 1 µM | ≤ 0.01 µM
